Reference: article PMC12329412, “Study of the mass balance, biotransformation, and safety of [^14C]IBI351 in healthy Chinese subjects” (Journal of Biomedical Research, 2024)
Values joined by “and” are separate entries in the source; they are usually repeats but may differ in a detail not shown here. Equal entries are not always repeated. Marks after values point to notes of the source that are not given here.

Assays:
Assay type in all cases: in vivo, human
[1] = Ratio of total radioactivity in whole blood to plasma; details: Mean±SD, n=6
Protocol: (§1) The endpoint of blood analysis was a plasma radioactivity concentration less than 1/8 of the baseline plasma value. Venous blood samples were collected from the six subjects (01101–01106) at the following time points (in hours): −1 (pre-dosing), 0.5, 1, 2, 4, 8, 12, 24, and at 24-h intervals (post-dosing). Whole blood aliquots were collected for radioactivity measurement, and blood samples were centrifuged (1500 [± 10] g, 4 ℃, 10 min) for metabolite identification. All samples were stored at −10–−30 ℃ until analysis.
(§2) Blood, plasma, urine, and fecal samples were analyzed for TRA using the Tri-Carb model 3110 TR liquid scintillation counter (PerkinElmer, Waltham, MA, USA). Blood samples were divided into two parallel portions (0.5 g) and completely burned by OX-501 oxidizer (R.J. Harvey, Tappan, NY, USA). Finally, the samples were analyzed by liquid scintillation counting. Plasma (0.5 g) and urine (1 g) samples were directly analyzed by liquid scintillation counting. Fecal samples were first homogenized with isopropanol/water (50/50, v/v). The excretion of radioactivity in the urine and feces, referring to the cumulative recovery of total radioactive material in each time period, was defined as the sum of the percentage of TRA in the urine and feces relative to the administered dose. The TRA in each sample during a time period and the percentage of TRA related to the administered dose (% of dose) were calculated using the following formula: % of dosage = (TRA detected in the sample/radioactive dosage) × 100%.
The radioactivity in the whole blood and plasma is represented by the TRA ratio between the whole blood and plasma.

[2] = Plasma pharmacokinetics of IBI351 parent drug (HPLC-MS/MS) after a single oral dose of [14C]IBI351
Protocol: (§3) This was a single-center, single-dose, open-trial study involving six healthy Chinese male subjects. They received a single dose of 600 mg/150 μCi [^14C]IBI351 on day 1 after fasting for at least 10 h. Blood, urine, and fecal samples were collected at specified time points or intervals within 15 days (0–336 h) following the administration of [^14C]IBI351.
as §1
Plasma, urine, and fecal samples were analyzed using high-performance liquid chromatography-tandem mass spectrometry (HPLC-MS/MS; ABSciex, Carlsbad, CA, USA) to determine the concentrations of IBI351. Samples containing stable isotope-labeled GF1927 (C32H27D3ClFN6O4, with a molecular weight of 620.10) as an internal standard were subjected to protein precipitation with acetonitrile and separated on a Waters Xbridge C18 column (3.5 μm, 50 mm × 2.1 mm; Waters, Milford, MA, USA) at 40 ℃. The mobile phase consisted of deionized water (with 0.1% formic acid) and acetonitrile (with 0.1% formic acid), delivered by gradient elution at 0.6 mL/min, and the gradient elution program was 30% phase B in 0–0.29 min, 80% phase B in 0.30–1.80 min, 30% phase B in 1.81–3.00 min. The detection was performed on a Triple Quad 6500+ tandem mass spectrometer in the positive ion electrospray ionization mode. Quantification was conducted by multiple reaction monitoring of the transitions m/z 617.3→358.2 for IBI351 and m/z 622.2→363.1 for internal standard, respectively. The calibration range for IBI351 in human plasma was 5–5000 ng/mL.
(§4) Statistical analysis of TRA in the whole blood and plasma, concentrations of IBI351, corresponding pharmacokinetic parameters, and urine and fecal excretion data was performed using Microsoft Excel 2010. The pharmacokinetic parameters were calculated using Pkanalix 2021R1 (Lixoft, Antony, France). The drug-time curve was plotted using WinNonlin® (version 8.3, Certara). Data were analyzed using the SAS 9.4 software and presented as mean ± standard deviation.

[3] = Pharmacokinetics of total radioactivity (TRA) in plasma by liquid scintillation counting; details: for Tmax: single oral 600 mg/150 μCi [14C]IBI351, fasted, median (min, max)
Protocol: as §3, §1, §2, §4

[4] = Mass balance: recovery of total radioactivity in urine and feces; details: for Radioactivity excreted in feces / Radioactivity excreted in urine / Total radioactive excretion in urine and feces: 0–312 h, mean±SD, n=6
Protocol: as §3
Urine and fecal samples were collected for mass balance analysis and metabolite profiling. Urine samples were collected in polyethylene containers during the following time periods (in hours): −24–0 (pre-dosing), 0–4, 4–8, 8–12, 12–24, and at 24-h intervals thereafter (post-dosing) and stored at 4 ℃ during the collection period. Fecal samples were collected during the following periods (in hours): −24–0 (pre-dosing), 0–24, and at 24-h intervals thereafter (post-dosing). The collection of urine and fecal samples was terminated when the TRA in the combined biological samples (urine + feces) from each subject exceeded 90% of the administered dose. Additionally, the radioactivity in samples collected over two consecutive days should be less than 1% of the administered dose. The samples were weighed in special containers and stored at −10 ℃ to −30 ℃ until analysis.
as §2

[5] = IBI351 parent drug in plasma, single oral 600 mg/150 μCi, n=6, mean±SD
[6] = total plasma radioactivity, single oral 600 mg/150 μCi, n=6, mean±SD
[7] = individual subjects, rows in order 01101–01106, listed as [14C]IBI351

C=CC(=O)N1CCN2c3c(c(=O)n(-c4c(C)ccnc4C(C)C)c4nc(-c5c(O)cccc5F)c(Cl)cc34)N(C)C(=O)C2C1 (centres unmarked) [IBI351]
Ratio of whole blood to total plasma radioactivity ([1]; 0.50 h post-dose): 0.655±0.0841 | Ratio of whole blood to total plasma radioactivity ([1]; 1.00 h post-dose): 0.716±0.0588 | Ratio of whole blood to total plasma radioactivity ([1]; 4.00 h post-dose): 0.606±0.0323 | Ratio of whole blood to total plasma radioactivity ([1]; 12.0 h post-dose): 0.571±0.0884 | Ratio of whole blood to total plasma radioactivity ([1]; 24.0 h post-dose): 0.626±0.0402 | Ratio of whole blood to total plasma radioactivity ([1]; 48.0 h post-dose): 0.670±0.0320 | quantifiable time point ([2]; IBI351 parent drug in plasma): 168 h | AUC0–last [2, 5]: 2.65×10^4±5.90×10^3 h·ng Eq./mL | CL/F [2, 5]: 25.6 (± 5.56) L/h and 25.6±5.56 L/h | Cmax [2, 5]: 3.90×10^3±8.02×10^2 ng Eq./mL | Cmax ([2]; IBI351 parent drug in plasma, single oral 600 mg/150 μCi, n=6, mean±SD, listed as IB1351): 3.90 × 10^3 (± 8.02 × 10^2) ng Eq./mL | Cmax ([2]; male, human, oral, 600 mg, IBI351 parent drug in plasma, read-out: mean Cmax): 3900 ng/mL | CL renal ([2]; male, human, plasma, single oral 600 mg/150 μCi, read-out: renal clearance (converted)): 30.3 mL/min | Tmax ([2]; male, human, IBI351 parent drug in plasma, single oral 600 mg/150 μCi, fasted, n=6, median (min, max)): 1 h | half-life ([2]; male, human, IBI351 parent drug in plasma, single oral 600 mg/150 μCi, n=6, mean±SD): 17.4 ± 11.9 h | MRT last ([2]; male, human, IBI351 parent drug in plasma, single oral 600 mg/150 μCi, n=6, mean±SD, read-out: MRT0–last): 8.24 ± 1.1 h | Vd/F ([2]; male, human, IBI351 parent drug in plasma, single oral 600 mg/150 μCi, n=6, mean±SD, read-out: Vz/F): 581 ± 323 L | quantifiable time point ([3]; TRA in plasma): 456 h | Tmax ([3]; total plasma radioactivity, n=6): 2.00 h and 2.00 (2.00, 4.00) h | Tmax ([3]; total plasma radioactivity, n=6, listed as [^14C]IBI351): 2 h | AUC0–inf [3, 6]: 4.69×10^5±1.10×10^5 h·ng Eq./mL | AUC0–last [3, 6]: 4.33×10^5±1.04×10^5 h·ng Eq./mL | CL/F [3, 6]: 1.32 ± 0.319 L/h | Cmax [3, 6]: 7.26 × 10^3 (± 1.68 × 10^3) ng Eq./mL and 7.26×10^3±1.68×10^3 ng Eq./mL | MRT0–last [3, 6]: 108 ± 4.20 h | T1/2 [3, 6]: 129 (± 21.7) h and 129±21.7 h | Vz/F [3, 6]: 242 ± 50.7 L | T1/2 ([3]; total plasma radioactivity, single oral 600 mg/150 μCi, n=6, mean±SD, listed as [^14C]IBI351): 129 h | Radioactivity excreted in feces [4]: approximately 86.30 % of dose | Radioactivity excreted in urine [4]: 9.27 % of dose | Total radioactive excretion in urine and feces [4]: 95.56 % of dose | Radioactivity excreted in feces ([4]; listed as [14C]IBI351): 86.30±4.90 % of dose | Radioactivity excreted in urine ([4]; listed as [14C]IBI351): 9.27±1.83 % of dose | Total radioactive excretion in urine and feces ([4]; listed as [14C]IBI351): 95.56±3.41 % of dose | Radioactivity excreted in feces ([4]; listed as [^14C]IBI351): 86.30 % of dose | Radioactivity excreted in urine ([4]; listed as [^14C]IBI351): 9.27 % of dose | Total radioactive excretion in urine and feces ([4]; listed as [^14C]IBI351): 95.56 % of dose | Excretion rate ([4]; at 144 h (six days) post-dose): less than 1.00% | Urine and feces recovered radioactivity ([4]; individual subjects, rows in order 01101–01106, 01105 normalized to 100.00%, listed as [14C]IBI351): 92.36 % of dose and 94.47 % of dose and 91.45 % of dose and 96.48 % of dose and 100.00 % of dose and 98.61 % of dose | Feces recovered radioactivity [4, 7]: 80.29 % of dose and 87.83 % of dose and 92.67 % of dose and 89.35 % of dose and 80.67 % of dose and 86.99 % of dose | Urine recovered radioactivity [4, 7]: 11.69 % of dose and 7.48 % of dose and 11.16 % of dose and 8.65 % of dose and 7.33 % of dose and 9.26 % of dose | TRA excreted into the feces ([4]; of the administered dose, from 0 h to 192 h): 86.30% | TRA excreted into the urine and feces ([4]; of the administered dose, period printed as 0–192 h): 95.56% | Total radioactive content excreted in urine and feces within 120 h ([4]; within 120 h (five days) after administration, on average): more than 90.00%
